From patent US20070128193A1, “GLP-1 agonists, compositions, methods and uses” (priority 2004, published 2007)
Where no end group is shown, it is not given here.

Tests used:
[1] = administered subcutaneously; cited from earlier work
db/db mice = experiment: Fasting blood glucose in db/db mice; assay type: in vivo
Protocol: GLP-1 mimetibody lowers glucose level in db/db mice. […] Blood glucose was monitored 0.5, 1, 2, 3, and 4 hours post-dosing. […] In addition, consistent with the mechanism of action for GLP-1, the maximum glucose lowering effect achieved at 0.19 nmol was not enhanced by a higher dose of the GLP-1 mimetibody (1.9 nmol). The maximum glucose lowering effect maintained blood glucose values within the normal range.

RINm cells = experiment: Insulin secretion in RINm cells; assay type: cell-based; conditions: peptides 0-5 nM; mimetibodies 5 or 50 nM
Protocol: GLP-1 mimetibody causes insulin secretion in RINm cells. To test the effect of GLP-1 mimetibody in insulin secretion, RINm cells were treated with increasing concentrations of GLP-1 (7-36) peptide (0-5 nM) (FIG. 6A), exendin-4 peptide (0-5 nM) (FIG. 6A), or various GLP-1 mimetibodies (5 or 50 nM) and the amount of insulin secreted was measured via ELISA. All GLP-1 mimetibodys tested had activities in stimulating insulin secretion in RINm cells.

DPP-IV = target: T1, DPP-IV (Homo sapiens, UniProt P27487); experiment: DPP-IV cleavage assay; assay type: in vitro ADME; conditions: 1.2 nM, DPP-IV 1 μg/mL, room temperature, 0-40 minutes
T1 construct: purchased R&D Systems
Protocol: DPP-IV cleavage assay. Since GLP-1 is rapidly inactivated by DPP-IV, an in vitro assay was established to quantitate intact (i.e. uncleaved) GLP-1 mimetibody. Briefly, GLP-1 mimetibody or peptide (1.2 nM) was incubated at room temperature with DPP-IV (1 μg/mL, R&D Systems). After various times (0, 5, 10, 15, 20, 30, 40 minutes), a DPP-IV inhibitor (100 μM, Linco) was added to quench the reaction. The amount of intact GLP-1 mimetibody or peptide was measured using the GLP-1 Active ELISA (Linco) and the GLP-1 mimetibody or peptides for the respective standard curves.

GLP-1R = target: T2, GLP-1R (Homo sapiens, UniProt P43220); experiment: FACS binding assay, HEK293 cells over-expressing GLP-1R; conditions: 20 nM, 2 hours at 4° C.
T2 construct: expressed in transfected cells; host or cells: HEK293
Protocol: FACS Binding Assay. The activity of GLP-1 mimetibody was tested in an in vitro FACS binding assay. To determine whether the GLP-1 mimetibody binds GLP-1R, HEK293 cells (1×10^6 cells) over-expressing GLP-1R were incubated with GLP-1 mimetibody (20 nM) for 2 hours at 4° C. The cells were washed, and a fluorescently labeled secondary detection antibody (1 μg/mL goat anti-human IgG, Fc gamma specific) was added for 30 minutes at 4° C. The fluorescence intensity of the cells was monitored via flow cytometry.

[2] = Human serum stability assay; assay type: in vitro ADME; conditions: 30 nM, 37° C.
Protocol: Human Serum stability assay. The stability of the GLP-1 mimetibody in serum was also measured to ensure that other serum proteases were not able to cleave and inactivate the GLP-1 mimetibody. Briefly, GLP1 peptide or the GLP1 mimetibody (30 nM) was incubated in human serum at 37° C. After various times, samples were evaluated to determine the amount of intact peptide or mimetibody. The reactions were quenched with a DPP-IV inhibitor (100 μM, Linco), and the samples were analyzed using the GLP-1 Active ELISA from Linco.

control HEK293 cells = experiment: FACS binding assay, control HEK293 cells; conditions: 20 nM, 2 hours at 4° C.

T1 sequence (P27487 whole entry, species assumed): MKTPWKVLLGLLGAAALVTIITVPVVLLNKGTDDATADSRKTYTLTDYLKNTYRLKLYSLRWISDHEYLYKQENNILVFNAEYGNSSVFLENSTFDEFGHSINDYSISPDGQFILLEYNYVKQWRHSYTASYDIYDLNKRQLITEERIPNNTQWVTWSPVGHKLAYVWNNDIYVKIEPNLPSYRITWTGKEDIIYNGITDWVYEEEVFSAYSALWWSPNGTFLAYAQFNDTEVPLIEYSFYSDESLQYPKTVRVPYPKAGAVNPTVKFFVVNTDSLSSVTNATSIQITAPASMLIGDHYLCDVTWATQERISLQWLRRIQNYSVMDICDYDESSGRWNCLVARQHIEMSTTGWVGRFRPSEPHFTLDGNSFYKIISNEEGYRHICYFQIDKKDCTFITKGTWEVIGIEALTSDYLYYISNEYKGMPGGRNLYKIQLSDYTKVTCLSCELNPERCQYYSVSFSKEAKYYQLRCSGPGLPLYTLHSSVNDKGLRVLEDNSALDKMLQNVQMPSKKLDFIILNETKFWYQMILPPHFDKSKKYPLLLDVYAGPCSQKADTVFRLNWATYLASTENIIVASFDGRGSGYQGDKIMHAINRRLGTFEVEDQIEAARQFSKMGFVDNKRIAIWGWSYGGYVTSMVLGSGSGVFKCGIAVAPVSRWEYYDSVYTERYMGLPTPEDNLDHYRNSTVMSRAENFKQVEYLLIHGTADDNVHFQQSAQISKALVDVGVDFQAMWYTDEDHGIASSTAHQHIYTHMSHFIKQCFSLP
T2 sequence (P43220 24-463, species assumed): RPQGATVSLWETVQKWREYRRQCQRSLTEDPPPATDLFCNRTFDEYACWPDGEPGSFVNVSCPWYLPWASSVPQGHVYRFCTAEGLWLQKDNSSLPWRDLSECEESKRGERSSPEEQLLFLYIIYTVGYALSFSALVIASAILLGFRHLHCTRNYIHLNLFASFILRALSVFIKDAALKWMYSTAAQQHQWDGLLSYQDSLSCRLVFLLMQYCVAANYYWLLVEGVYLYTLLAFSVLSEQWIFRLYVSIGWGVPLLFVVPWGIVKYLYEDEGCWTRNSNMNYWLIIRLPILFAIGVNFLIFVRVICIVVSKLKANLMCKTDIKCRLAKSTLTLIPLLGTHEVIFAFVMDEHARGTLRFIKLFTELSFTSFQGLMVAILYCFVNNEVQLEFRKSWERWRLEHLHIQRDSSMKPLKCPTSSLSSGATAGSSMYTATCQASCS

GLP-1 (7-36) amide: GLP-1 (7-36) amide
time action [1]: about 50 minutes

GLP-1 peptide: GLP-1 peptide used as comparator [reference compound]
blood glucose over 4 hours post-dosing (db/db mice; db/db mice fasted two hours, intravenous, mimetibody dose 100-fold lower than peptide dose): lowered blood glucose at 30 minutes, but by 60 minutes, the blood glucose began to increase again

GLP-1 (7-36) peptide: wild-type GLP-1 (7-36) peptide (HAEGTFTSDVSSYLEGQAAKEFIAWLVKGR; ends and bridges not checked; UniProt P01275 98-127, looked up, fragment)
stimulation of insulin secretion in RINm cells (RINm cells): stimulates insulin release in RINm cells

GLP-1 mimetibody: GLP-1 peptide (7-36), Gly-Ser linker, J region, IgG1 hinge, CH2 and CH3 construct (SEQ ID NO:2)
resistance to cleavage by DPP-IV relative to the GLP-1 peptide (DPP-IV): significantly more resistant to cleavage by DPP-IV
binding to HEK293 cells over-expressing GLP-1R (FACS) (GLP-1R): binds to HEK293 cells over-expressing GLP-1R
remained intact in human serum after 24 hours [2]: > 90%
binding to control HEK293 cells (FACS) (control HEK293 cells): not to control HEK293 cells
lowering of fasting blood glucose compared to control animals (db/db mice; doses ranging from 0.019 to 1.9 nmol): effective in lowering the fasting blood glucose
dose at which maximum glucose lowering effect was achieved (db/db mice; not enhanced by 1.9 nmol): 0.19 nmol

exendin-4 peptide: exendin-4 peptide, positive control
stimulation of insulin secretion in RINm cells (RINm cells): stimulates insulin release in RINm cells
